{"source": "ChEMBL document CHEMBL1146576", "about": "“Anti-inflammatory lanostane-type triterpene acids from Piptoporus betulinus” (2003)", "assay_type_in_all_cases": "functional", "key": {"[1]": {"system": "Mus musculus", "test": "Antiinflammatory activity in mouse assessed as inhibition of TPA-induced ear edema at 400 nmol"}, "[2]": {"system": "Mus musculus", "test": "Antiinflammatory activity in mouse assessed as inhibition of TPA-induced ear edema at 430 nmol"}, "[3]": {"system": "Mus musculus", "test": "Antiinflammatory activity in mouse assessed as inhibition of TPA-induced ear edema at 560 nmol"}}}
{"compound": "C=C(CC[C@@H](C)[C@H]1CC[C@@]2(C)C3=C(C[C@H](O)[C@]12C)[C@@]1(C)CC[C@@H](OC(=O)CC(=O)O)C(C)(C)[C@@H]1CC3)[C@H](C)C(=O)O", "values": [{"measurement": "inhibition (INH)", "setting": "[1]", "value": 65, "unit": "%"}]}
{"compound": "C=C(CC[C@@H](C)[C@H]1CC[C@@]2(C)C3=C(C[C@H](O)[C@]12C)[C@@]1(C)CC[C@@H](OC(=O)CC(C)(O)CC(=O)OC)C(C)(C)[C@@H]1CC3)[C@H](C)C(=O)O", "note": "(some centres not stated)", "values": [{"measurement": "inhibition (INH)", "setting": "[1]", "value": 75, "unit": "%"}]}
{"compound": "C=C(CC[C@@H](C)[C@H]1CC[C@@]2(C)C3=C(C[C@H](O)[C@]12C)[C@@]1(C)CC[C@@H](OC(=O)C[C@](C)(O)CC(=O)OC)C(C)(C)[C@@H]1CC3)[C@H](C)C(=O)O", "values": [{"measurement": "inhibition (INH)", "setting": "[1]", "value": 86, "unit": "%"}]}
{"compound": "CC1(C)[C@@H](O)CC[C@]2(C)[C@H]3C(=O)C=C4[C@@H]5C[C@@](C)(C(=O)O)CC[C@]5(C)CC[C@@]4(C)[C@]3(C)CC[C@@H]12", "note": "[ENOXOLONE]", "values": [{"measurement": "inhibition (INH)", "setting": "[2]", "value": 24, "unit": "%"}]}
{"compound": "COc1ccc2c(c1)c(CC(=O)O)c(C)n2C(=O)c1ccc(Cl)cc1", "note": "[INDOMETHACIN]", "values": [{"measurement": "inhibition (INH)", "setting": "[3]", "value": 16, "unit": "%"}]}
{"compound": "C=C(CC[C@@H](C)[C@H]1CC[C@@]2(C)C3=C(C[C@H](O)[C@]12C)[C@@]1(C)CC[C@@H](O)C(C)(C)[C@@H]1CC3)[C@H](C)C(=O)O", "note": "[POLYPORENIC ACID A]", "values": [{"measurement": "inhibition (INH)", "setting": "[1]", "value": 64, "unit": "%"}]}
{"compound": "C=C(CC[C@@H](C(=O)O)[C@H]1[C@H](O)C[C@@]2(C)C3=CC[C@H]4C(C)(C)C(=O)CC[C@]4(C)C3=CC[C@]12C)C(C)C", "note": "[POLYPORENIC ACID B]", "values": [{"measurement": "inhibition (INH)", "setting": "[1]", "value": 49, "unit": "%"}]}
